From patent US7078386B2, “Enhancing agent for nerve growth factor production comprising a compound having a coumarin backbone or a compound having a 2-dimethyl chroman backbone” (Takara Bio, Inc., priority 2001, dated 2006)

How the values were obtained:
rat = experiment: Single-dose oral administration toxicity in rat; format: in vivo; conditions: orally administered, single dose at 1 g/kg of the body weight
Experimental: No toxicity is found when the above-mentioned effective ingredient usable in the present invention is administered in an amount effective for the exhibition of its action. […] Also, incidence of adverse actions is not found.

[1] = system: L-M cells (ATCC CCL-1.2) from murine fibroblasts; experiment: Enhancing activity for NGF production: NGF concentration in culture medium by enzyme immunoassay; format: cell-based; conditions: 20 hours culture
Experimental: (2) The enhancing activity for NGF production was determined for the fraction 10 derived from root portions of Angelica keiskei koidz., of which structure was identified in item (1) of Example 1. L-M cells (ATCC CCL-1.2) from murine fibroblasts were suspended in an M199 medium (manufactured by ICN) containing 0.5% bactopeptone (manufactured by Gibco) so as to have a concentration of 1.5×10^5 cells/ml. The suspension was put in a 96 well plate in an amount of 0.1 ml each well, and the cells were aseptically cultured. After culturing the cells for 3 days, the medium was removed therefrom, and exchanged with an M199 medium containing 0.5% bovine serum albumin (manufactured by Sigma). The fraction 10 derived from root portions of Angelica keiskei koidz. was added as the sample thereto, and the cells were cultured for 20 hours. After the termination of the culture, the concentration of the NGF in the culture medium was assayed by an enzyme immunoassay method (NGF Emax Immuno Assay System, manufactured by Promega). The NGF concentration when added was expressed, assuming that the NGF concentration in the cell culture medium with no addition of the sample is 100%, whereby the enhancing activity for NGF production of the sample was evaluated. The experiment was carried out twice, and an average value was taken. As a result, it was clarified that the fraction 10 derived from root portions of Angelica keiskei koidz., namely 3′-O-β-D-glucopyranoyl khellactone, has an enhancing activity for NGF production.

With `C/C=C(/C)C(=O)OC1c2c(ccc3ccc(=O)oc23)OC(C)(C)C1O[C@@H]1O[C@H](CO[C@@H]2O[C@H](CO)[C@@H](O)[C@H](O)[C@H]2O)[C@@H](O)[C@H](O)[C@H]1O` (stereo partly drawn) [Fraction 19/20-6, 4′-O-angeloyl-3′-O-[6-O-(β-D-glucopyranosyl)-β-D-glucopyranosyl]-khellactone] the cases of death (rat) was “no cases of death” and the “Amount of NGF Produced” value ([1]; Table 5, sample 1.00 mg/ml, no-sample control = 100% (0.063 ng/ml)) was 337.7%.
In the case of `COc1ccc(C(=O)C=Cc2ccc(O)cc2)c2c1CC(O)C(C)(C)O2` (stereo not drawn) [3-hydroxy-8-[3-(4-hydroxyphenyl)-acryloyl]-5-methoxy-2-dimethyl chroman], the cases of death (rat) is reported as “no cases of death” and the “Amount of NGF Produced” value ([1]; Table 6, sample 200 μM, no-sample control = 100% (0.668 ng/ml)) is reported as 457.7%.
For `CC1(C)Oc2ccc3ccc(=O)oc3c2C(O)C1OC1OC(CO)C(O)C(O)C1O` [Fraction 10, 3′-O-β-D-glucopyranoyl khellactone], the “Amount of NGF Produced” value ([1]; Table 1, sample 2.00 mg/ml, no-sample control = 100% (0.382 ng/ml)) was 565.5%.
For `CC(C)=CCc1cc2ccc(=O)oc2cc1O[C@@H]1O[C@H](CO)[C@@H](O)[C@H](O)[C@H]1O` [Fraction 19/20-5, 7-β-D-glucopyranosyloxy-6-prenyl coumarin], the “Amount of NGF Produced” value ([1]; Table 4, sample 1.00 mg/ml, no-sample control = 100% (0.063 ng/ml)) was 487.9%.
With `CC(C)=CCc1c(OC2OC(CO)C(O)C(O)C2O)ccc2ccc(=O)oc12` [Fraction 13-2, 7-O-β-D-glucopyranosyloxy-8-prenyl coumarin] the “Amount of NGF Produced” value ([1]; Table 2, sample 1.00 mg/ml, no-sample control = 100% (0.053 ng/ml)) was 792.1%.
For `COc1ccc(C(=O)O)c2c1CC(O)C(C)(C)O2` (stereo not drawn) [Fraction 18-4, 8-carboxyl-3-hydroxy-5-methoxy-2-dimethyl chroman], the cases of death (rat) was “no cases of death” and the “Amount of NGF Produced” value ([1]; Table 3, sample 0.0375 mg/ml, no-sample control = 100% (0.027 ng/ml)) was 2510.4%.
